Several values for one entry are separate records, joined by “and”; a condition that tells them apart may be missing. Equal entries are not always repeated.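 These data come from cells grown in 96-well plates and exposed to compound for 48 hours at five concentrations. GI50: concentration for 50% inhibition of growth. At the TGI there is no net growth.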
How the values were obtained:
Assay in all cases: DTP human tumour cell line panel, 48 h
[1] = system: TK-10 renal
[2] = system: SF-539 CNS
[3] = system: HCC-2998 colon
[4] = system: 786-0 renal
[5] = system: OVCAR-5 ovarian
[6] = system: CCRF-CEM leukemia
[7] = system: SK-MEL-2 melanoma
[8] = system: HT29 colon
[9] = system: IGROV1 ovarian
[10] = system: UACC-257 melanoma

Structure (SMILES)	GI50 [1]	TGI [1]	GI50 [2]	TGI [2]	GI50 [3] [µM]	TGI [3] [µM]	GI50 [4]	TGI [4]	GI50 [5]	TGI [5]	GI50 [6] [µM]	TGI [6]	GI50 [7]	TGI [7]	GI50 [8]	TGI [8]	GI50 [9]	TGI [9]	GI50 [10]	TGI [10]
N#Cc1c(O)c2c(c(O)c1C#N)C(=O)c1ccccc1C2=O	4.2 µM	13.8 µM	2.6 µM	5.53 µM	2.51	8.59	2.45 µM	5.45 µM	3.35 µM	8.74 µM	2.23	5.82 µM	2.66 µM	7.73 µM	0.563 µM	3.96 µM	2.89 µM	10.8 µM	1.57 µM	4.82 µM
CCOC(=O)c1cc(-c2ccc([N+](=O)[O-])cc2)n(-c2ccc(C(=O)O)c(O)c2)c1C	6.18 µM	20 µM	10.6 µM	22.5 µM			4.84 µM	17.2 µM	17.3 µM	35.3 µM	2.75	> 100 µM	11.5 µM	24.7 µM	3.23 µM	13.3 µM	4.42 µM	19.2 µM	9.2 µM	22 µM
O=C(Cc1ccc(/C=C/C(=O)c2ncc[nH]2)cc1)Nc1ccc(Cl)cc1	5.41 µM	13.9 µM	3.33 µM	7.03 µM	3.73	7.48	1.13 µM	4.77 µM	3.3 µM	7.78 µM	1.08	> 25 µM	5.53 µM	14.6 µM	0.886 µM	2.96 µM	3.59 µM	15.4 µM	7.24 µM	19 µM
O=C(O)CCCc1ccc(N(CCCl)CCCl)cc1	25.4 µM and 81.4 µM	70.8 µM and 471 µM and 221 µM	7.28 µM and 18.2 µM	26.9 µM and 99.4 µM and 89.6 µM			7.67 µM and 35.7 µM	28.4 µM and 181 µM and 133 µM	20.6 µM and 173 µM	45.4 µM and 274 µM and 374 µM	0.881	34.2 µM and 170 µM and 18.6 µM	31.8 µM and 270 µM	52 µM and 314 µM and 344 µM	19.9 µM and 173 µM	59.3 µM and 486 µM and 518 µM	30.5 µM and 158 µM	65.3 µM and 352 µM and 321 µM	26 µM and 148 µM	60.7 µM and 298 µM and 306 µM
O=C(O)c1cc(S(=O)(=O)N=NC=C2c3ccccc3N(O)c3ccccc32)ccc1O		50 µM				37.9		27.7 µM		> 100 µM		86 µM		64.2 µM		> 100 µM		83.1 µM		88.2 µM
COc1cc2c(c(OC)c1OC)-c1ccc(NCc3ccccc3)c(=O)cc1[C@@H](NC(C)=O)CC2	4.82 µM	> 100 µM	0.309 µM	3.51 µM	0.529	13.2	0.745 µM	46.8 µM	0.723 µM	> 100 µM	0.34	> 100 µM	0.643 µM	22.8 µM	0.373 µM	11.9 µM	0.595 µM	16.8 µM	0.671 µM	37.5 µM
O=C(N/N=C/c1cccc(O)c1O)N/N=C/c1cccc(O)c1O		> 100 µM		36.2 µM				> 100 µM		59 µM		38.5 µM		> 100 µM		> 100 µM		> 100 µM		62.9 µM
Cc1c(C(=O)/C=C/c2cccc3ccccc23)[n+](=O)c2ccccc2n1[O-]		34.6 µM		23.8 µM		30.8		26.4 µM		28.5 µM		16.8 µM				24.8 µM		48.7 µM		26.7 µM
COc1cccc(-c2nn(-c3ccccc3)cc2-c2ccnc(NCCCNS(=O)(=O)c3cccc(F)c3)c2)c1	5.32 µM	> 100 µM			3.92	> 100	4.01 µM	> 100 µM	> 100 µM	> 100 µM	4.62	> 100 µM	2.59 µM	8.32 µM	2.87 µM	18.8 µM	4.96 µM	> 100 µM	5.12 µM	39.3 µM
CC(=O)/C=C/c1cccc(N=S)c1		> 89.9 µM		20.8 µM		34.6		13.1 µM		> 100 µM		> 49.1 µM				19.5 µM		> 48.4 µM		> 67.4 µM
O=S(=O)(O)C(O)/C=C/c1ccccc1 (configuration not stated)		> 100 µM				> 100		> 100 µM		> 100 µM		> 100 µM		> 100 µM		> 100 µM		> 100 µM		> 100 µM
Cc1cc(C)nc(NS(=O)(=O)c2ccc(NC(=O)c3cccc4c(=O)c5ccccc5[nH]c34)cc2)n1		51 µM		35.4 µM		31.7		36.8 µM				> 100 µM				43.9 µM		68.1 µM		33.9 µM
COc1cc2c(cc1O)[C@H](Cc1ccc(Oc3cc(C[C@H]4c5cc(OC)c(OC)cc5CCN4C)ccc3OC)cc1)NCC2				22.8 µM		18.7		25.2 µM		35 µM		37 µM		32.1 µM		19.4 µM		33 µM		29.7 µM
CCOc1ccc2nc(NC(=O)/C(CC(=O)CC(C3=C(O)c4ccccc4CC3=O)c3ccccc3)=N\O)sc2c1 (configuration not stated)				> 100 µM		> 100		> 100 µM		> 100 µM		> 100 µM		> 100 µM		> 100 µM		> 100 µM		> 100 µM
O=c1[nH]c(=O)n(C2CC(O)C(CO)O2)cc1C#Cc1c(F)c(F)c(F)c(F)c1F (configuration not stated)				> 100 µM		> 100		> 100 µM		> 100 µM		> 100 µM		> 100 µM		> 100 µM				> 100 µM
CN(C)CCNC(=O)c1cccc2nc3c(Cl)cccc3nc12		> 54.8 µM		16.8 µM		43.1		> 49.1 µM		16.7 µM				18.6 µM		15.9 µM		> 86.4 µM		26.9 µM
Clc1ccc(Cc2nc3cc4ccccc4cc3[nH]2)cc1	10.6 µM	38.4 µM	3.08 µM	81.1 µM	15.8	89.5	8.99 µM	43.2 µM	26.3 µM	> 100 µM	2.21	> 100 µM	> 100 µM	> 100 µM			26 µM	> 100 µM	> 100 µM	> 100 µM
COc1ccc(/C=C(/C(=O)O)c2cc(OC)c(OC)c(OC)c2)cc1				51.2 µM		> 100		> 100 µM		> 100 µM		> 100 µM		> 100 µM		> 100 µM		> 100 µM		> 100 µM
CCOC(=O)c1c(N)n(-c2ccccc2)c(=S)n(-c2ccccc2)c1=O		> 100 µM				> 100		> 100 µM		> 100 µM		> 100 µM		> 100 µM		> 100 µM		> 100 µM		> 100 µM

Structure (SMILES)	GI50 [1]	TGI [1]	GI50 [2]	TGI [2]	GI50 [3] [µM]	TGI [3] [µM]	GI50 [4]	TGI [4]	GI50 [5]	TGI [5]	GI50 [6] [µM]	TGI [6]	GI50 [7]	TGI [7]	GI50 [8]	TGI [8]	GI50 [9]	TGI [9]	GI50 [10]	TGI [10]
O=C1CC[C@H]2CNC(=O)C[C@H]2C1		> 100 µM		> 100 µM		> 100		> 100 µM				> 100 µM		> 100 µM		> 100 µM		> 100 µM		> 100 µM
COc1ccc(N=Cc2cc(OC)c(OC)c(OC)c2)cc1		> 100 µM		> 100 µM				> 100 µM		> 100 µM		> 100 µM		> 100 µM		> 100 µM		> 100 µM		> 100 µM
COC(=O)[C@@H](C)C[C@H](Cc1ccccc1)NC(=O)c1nc([C@@H](C[C@H](C(C)C)N(C)C(=O)[C@@H](NC(=O)[C@H]2CCCN2C)C(C)C)OC(C)=O)sc1C	> 25 µM	> 25 µM	0.00339 µM	0.201 µM	< 0.0025	> 25	< 0.0025 µM	24.2 µM	0.0105 µM	> 25 µM	< 0.0025	> 25 µM	< 0.0025 µM	> 25 µM			< 0.0025 µM	> 25 µM	> 25 µM	> 25 µM
CCC1CCC2CCCC(C)N12 (configuration not stated)		> 100 µM		> 100 µM		> 100		> 100 µM				> 100 µM		> 100 µM				> 100 µM		> 100 µM
CN(C)S(=O)(=O)Nc1ccccn1		> 100 µM		> 100 µM		> 100		> 100 µM		> 100 µM				> 100 µM		> 100 µM		> 100 µM		> 100 µM
O=C1CCC(NC(=O)c2ccccc2)C(=O)N1 (configuration not stated)		> 100 µM		> 100 µM		> 100		> 100 µM		> 100 µM				> 100 µM		> 100 µM		> 100 µM		> 100 µM
CNC(=O)c1cc(Oc2ccc3c(c2)sc2nc(-c4ccc(N)cc4)cn23)ccn1	0.278 µM	> 100 µM	0.324 µM	> 100 µM	0.537	> 50.5	0.433 µM	> 100 µM		> 100 µM	0.2	> 100 µM	0.332 µM	> 100 µM	0.197 µM	0.802 µM	0.609 µM	> 100 µM		
Fc1ccc(-c2nn(-c3ccccc3)cc2-c2nc3ccccc3o2)cc1			8.88 µM	28.7 µM	7.98	> 100	15 µM	> 100 µM	20.1 µM	77.2 µM	3.43	> 100 µM	9 µM	28.3 µM	9.46 µM	30.4 µM	3.94 µM	39.3 µM	13.3 µM	48.2 µM
CCCNC(=O)OCc1c(COC(=O)NCCC)c(-c2ccc(Cl)c(Cl)c2)n2c1CCC2		18.9 µM		11.3 µM				11.4 µM		20.4 µM		7.95 µM				19.2 µM		5.54 µM		20.1 µM
Clc1cccc(NC=Nc2ccc(-c3nc4ccccc4s3)cc2)c1	21 µM	> 50 µM	17.8 µM	34.1 µM	16	42.5	10.6 µM	18.6 µM	23.6 µM	> 50 µM	10.5	25.4 µM	18 µM	> 50 µM			11.3 µM	24.3 µM	16.1 µM	36.6 µM
Cc1cccc2c3ccc4c(c3n(C)c12)C(=O)C=CC4=O		> 100 µM		> 100 µM		> 100		> 100 µM				61.2 µM		> 100 µM		> 100 µM		> 100 µM		> 100 µM
O=C(Nc1ccccc1[N+](=O)[O-])c1ccccc1		> 100 µM		> 100 µM		> 100		> 100 µM		> 100 µM						> 100 µM		> 100 µM		> 100 µM
ClCc1ccccc1CSc1ncnc2nc[nH]c12			> 60 µM	> 60 µM	> 60	> 60	> 60 µM	> 60 µM	> 60 µM	> 60 µM	> 60	> 60 µM			> 60 µM	> 60 µM	> 60 µM	> 60 µM	> 60 µM	> 60 µM
COc1cc2c(cc1OC)C1C=NC(C(=O)O)(C2)c2ccccc21 (configuration not stated)		> 100 µM		> 100 µM				> 100 µM		> 100 µM		> 100 µM				> 100 µM		> 100 µM		> 100 µM
O=C1c2ccccc2-c2c1c1cc3c(cc1c(=O)n2CCCCl)OCO3	30.9 µM	75.2 µM	51.4 µM	> 100 µM	24.4	> 100	18.4 µM	45.7 µM			66.1	> 100 µM	> 100 µM	> 100 µM	> 100 µM	> 100 µM				
O=C(O)/C=C/C(=O)Nc1ncn[nH]1		> 100 µM		> 100 µM		> 100		> 100 µM		> 100 µM				> 100 µM		> 100 µM		> 100 µM		> 100 µM
Cc1c(N2C(=O)/C(=C\c3ccccc3O)N=C2c2ccccc2)c(=O)n(-c2ccccc2)n1C	33.4 µM	> 100 µM	33.5 µM	> 100 µM	> 100	> 100	29.9 µM	> 100 µM	> 100 µM	> 100 µM			> 100 µM	> 100 µM	> 100 µM	> 100 µM	23.8 µM	> 100 µM	> 100 µM	> 100 µM
O=[N+]([O-])c1ccc(NSc2ccccc2)cc1		> 100 µM		44.6 µM		> 100		30.8 µM		> 100 µM		> 100 µM		> 100 µM				27.7 µM		> 100 µM

Reference: PubChem BioAssay (NCI)
